According to US9529005B2, “Modulating bacterial MAM polypeptides in pathogenic disease” (priority 2011, dated 2016):
Converted amounts (≈) assume the structure as drawn. Read-outs that look alike come from different tables or passages of the source.

What was measured:
Experiment in all cases: Antimicrobial susceptibility testing (MIC), BD Phoenix Automated Microbiology System; on interpretation of the result: key: R, resistant; I, intermediate; S, susceptible; R*: *As a rule, when ESBL is detected, an interpretation of susceptible or intermediate for penicillins, cephalosporins and aztreonam is reported as resistant
Type in all cases: cell-based
[1] = tested on: Acinetobacter baumannii; details: for MIC: Acinetobacter baumannii; on interpretation of the result: key: R, resistant; I, intermediate; S, susceptible; R*: *As a rule, when ESBL is detected, an interpretation of susceptible or intermediate for penicillins, cephalosporins and aztreonam is reported as resistant
[2] = tested on: Escherichia coli; details: for MIC: Escherichia coli; on interpretation of the result: key: R, resistant; I, intermediate; S, susceptible; R*: *As a rule, when ESBL is detected, an interpretation of susceptible or intermediate for penicillins, cephalosporins and aztreonam is reported as resistant
[3] = tested on: Klebsiella ssp.; details: for MIC: Klebsiella; on interpretation of the result: key: R, resistant; I, intermediate; S, susceptible; R*: *As a rule, when ESBL is detected, an interpretation of susceptible or intermediate for penicillins, cephalosporins and aztreonam is reported as resistant
[4] = tested on: Pseudomonas aeruginosa; details: for MIC: Pseudomonas aeruginosa
[5] = Acinetobacter baumannii isolate 1
[6] = Acinetobacter baumannii isolate 2
[7] = Acinetobacter baumannii isolate 3
[8] = Acinetobacter baumannii isolate 4
[9] = Acinetobacter baumannii isolate 5
[10] = read-out: minimal inhibiting concentration, Acinetobacter baumannii isolate 1
[11] = read-out: minimal inhibiting concentration, Acinetobacter baumannii isolate 2
[12] = read-out: minimal inhibiting concentration, Acinetobacter baumannii isolate 3
[13] = read-out: minimal inhibiting concentration, Acinetobacter baumannii isolate 4
[14] = read-out: minimal inhibiting concentration, Acinetobacter baumannii isolate 5
[15] = read-out: minimal inhibiting concentration
[16] = Pseudomonas aeruginosa isolate 1
[17] = Pseudomonas aeruginosa isolate 2
[18] = Pseudomonas aeruginosa isolate 3
[19] = Pseudomonas aeruginosa isolate 4
[20] = Pseudomonas aeruginosa isolate 5
[21] = read-out: minimal inhibiting concentration, Escherichia coli isolate 1
[22] = read-out: minimal inhibiting concentration, Escherichia coli isolate 2
[23] = read-out: minimal inhibiting concentration, Escherichia coli isolate 3
[24] = read-out: minimal inhibiting concentration, Escherichia coli isolate 4
[25] = read-out: minimal inhibiting concentration, Escherichia coli isolate 5
[26] = read-out: minimal inhibiting concentration, Klebsiella ssp. isolate 1
[27] = read-out: minimal inhibiting concentration, Klebsiella ssp. isolate 2
[28] = read-out: minimal inhibiting concentration, Klebsiella ssp. isolate 3
[29] = read-out: minimal inhibiting concentration, Klebsiella ssp. isolate 4
[30] = read-out: minimal inhibiting concentration, Klebsiella ssp. isolate 5
[31] = read-out: minimal inhibiting concentration, Pseudomonas aeruginosa isolate 1
[32] = read-out: minimal inhibiting concentration, Pseudomonas aeruginosa isolate 2
[33] = read-out: minimal inhibiting concentration, Pseudomonas aeruginosa isolate 3
[34] = read-out: minimal inhibiting concentration, Pseudomonas aeruginosa isolate 4
[35] = read-out: minimal inhibiting concentration, Pseudomonas aeruginosa isolate 5

## CC1(C)S[C@@H]2[C@H](NC(=O)[C@H](N)c3ccccc3)C(=O)N2[C@H]1C(=O)O [Amp., Ampicillin]
[1]; [5]
  interpretation of the result: R
[1]; [6]
  interpretation of the result: R
[1]; [7]
  interpretation of the result: R
[1]; [8]
  interpretation of the result: R
[1]; [9]
  interpretation of the result: R
[1]; [10]
  MIC: > 16 µg/mL
[1]; [11]
  MIC: > 16 µg/mL
[1]; [12]
  MIC: > 16 µg/mL
[1]; [13]
  MIC: > 16 µg/mL
[1]; [14]
  MIC: > 16 µg/mL
[2]; Escherichia coli isolate 1
  interpretation of the result: R
[2]; Escherichia coli isolate 2
  interpretation of the result: R
  minimal inhibiting concentration: > 16 µg/mL
[2]; Escherichia coli isolate 3
  interpretation of the result: R
  minimal inhibiting concentration: > 16 µg/mL
[2]; Escherichia coli isolate 4
  interpretation of the result: R
  minimal inhibiting concentration: > 16 µg/mL
[2]; Escherichia coli isolate 5
  interpretation of the result: R
  minimal inhibiting concentration: > 16 µg/mL
[2]; [15]
  MIC: > 16 µg/mL
[3]; Klebsiella ssp. isolate 1
  interpretation of the result: R
[3]; Klebsiella ssp. isolate 2
  interpretation of the result: R
  minimal inhibiting concentration: > 16 µg/mL
[3]; Klebsiella ssp. isolate 3
  interpretation of the result: R
  minimal inhibiting concentration: > 16 µg/mL
[3]; Klebsiella ssp. isolate 4
  interpretation of the result: R
  minimal inhibiting concentration: > 16 µg/mL
[3]; Klebsiella ssp. isolate 5
  interpretation of the result: R
  minimal inhibiting concentration: > 16 µg/mL
[3]; [15]
  MIC: > 16 µg/mL
[4]; [16]
  interpretation of the result: R
[4]; [17]
  interpretation of the result: R
  minimal inhibiting concentration: > 16 µg/mL
[4]; [18]
  interpretation of the result: R
  minimal inhibiting concentration: > 16 µg/mL
[4]; [19]
  interpretation of the result: R
  minimal inhibiting concentration: > 16 µg/mL
[4]; [20]
  interpretation of the result: R
  minimal inhibiting concentration: > 16 µg/mL
[4]; [15]
  MIC: > 16 µg/mL

## Trimethoprim-Sulfamethoxazole [TmSm.]
[1]; [5]
  interpretation of the result: R
  minimal inhibiting concentration: 2/38
[1]; [6]
  interpretation of the result: R
  minimal inhibiting concentration: 2/38
[1]; [7]
  interpretation of the result: R
  minimal inhibiting concentration: 2/38
[1]; [8]
  interpretation of the result: R
  minimal inhibiting concentration: 2/38
[1]; [9]
  interpretation of the result: R
  minimal inhibiting concentration: 2/38
[2]; Escherichia coli isolate 1
  interpretation of the result: R
  minimal inhibiting concentration: 2/38
[2]; Escherichia coli isolate 2
  interpretation of the result: R
  minimal inhibiting concentration: 2/38
[2]; Escherichia coli isolate 3
  interpretation of the result: R
  minimal inhibiting concentration: 2/38
[2]; Escherichia coli isolate 4
  interpretation of the result: R
  minimal inhibiting concentration: 2/38
[2]; Escherichia coli isolate 5
  interpretation of the result: R
  minimal inhibiting concentration: 2/38
[3]; Klebsiella ssp. isolate 1
  interpretation of the result: R
  minimal inhibiting concentration: 2/38
[3]; Klebsiella ssp. isolate 2
  interpretation of the result: S
[3]; Klebsiella ssp. isolate 3
  interpretation of the result: S
[3]; Klebsiella ssp. isolate 4
  interpretation of the result: S
[3]; Klebsiella ssp. isolate 5
  interpretation of the result: R
  minimal inhibiting concentration: 2/38
[4]; [16]
  interpretation of the result: R
  minimal inhibiting concentration: 2/38
[4]; [17]
  interpretation of the result: R
  minimal inhibiting concentration: 2/38
[4]; [18]
  interpretation of the result: R
  minimal inhibiting concentration: 2/38
[4]; [19]
  interpretation of the result: R
  minimal inhibiting concentration: 2/38
[4]; [20]
  interpretation of the result: R
  minimal inhibiting concentration: 2/38

## C[C@@H](O)[C@H]1C(=O)N2C(C(=O)O)=C(S[C@@H]3CN[C@H](C(=O)N(C)C)C3)[C@H](C)[C@H]12 [Mero., Meropenem]
[1]; [5]
  interpretation of the result: S
[1]; [6]
  interpretation of the result: R
[1]; [7]
  interpretation of the result: R
[1]; [8]
  interpretation of the result: S
[1]; [9]
  interpretation of the result: R
[1]; [10]
  MIC: 2 µg/mL (≈ 5.22 µM)
[1]; [11]
  MIC: > 8 µg/mL
[1]; [12]
  MIC: > 8 µg/mL
[1]; [13]
  MIC: ≤ 1 µg/mL
[1]; [14]
  MIC: > 8 µg/mL
[2]; Escherichia coli isolate 1
  interpretation of the result: S
[2]; Escherichia coli isolate 2
  interpretation of the result: S
[2]; Escherichia coli isolate 3
  interpretation of the result: S
[2]; Escherichia coli isolate 4
  interpretation of the result: S
[2]; Escherichia coli isolate 5
  interpretation of the result: S
[2]; [21]
  MIC: ≤ 1 µg/mL
[2]; [22]
  MIC: ≤ 1 µg/mL
[2]; [23]
  MIC: ≤ 1 µg/mL
[2]; [24]
  MIC: ≤ 1 µg/mL
[2]; [25]
  MIC: ≤ 1 µg/mL
[2]; all E. coli isolates
  susceptibility of isolates: susceptible
[3]; Klebsiella ssp. isolate 1
  interpretation of the result: S
[3]; Klebsiella ssp. isolate 2
  interpretation of the result: S
[3]; Klebsiella ssp. isolate 3
  interpretation of the result: S
[3]; Klebsiella ssp. isolate 4
  interpretation of the result: S
[3]; Klebsiella ssp. isolate 5
  interpretation of the result: S
[3]; [26]
  MIC: ≤ 1 µg/mL
[3]; [27]
  MIC: ≤ 1 µg/mL
[3]; [28]
  MIC: ≤ 1 µg/mL
[3]; [29]
  MIC: ≤ 1 µg/mL
[3]; [30]
  MIC: ≤ 1 µg/mL
[3]; all Klebsiella ssp. isolates
  susceptibility of isolates: susceptible
[4]; [16]
  interpretation of the result: S
[4]; [17]
  interpretation of the result: R
[4]; [18]
  interpretation of the result: R
[4]; [19]
  interpretation of the result: R
[4]; [20]
  interpretation of the result: S
[4]; [31]
  MIC: 4 µg/mL (≈ 10.4 µM)
[4]; [32]
  MIC: > 8 µg/mL
[4]; [33]
  MIC: > 8 µg/mL
[4]; [34]
  MIC: > 8 µg/mL
[4]; [35]
  MIC: 4 µg/mL (≈ 10.4 µM)

## C[C@H]1COc2c(N3CCN(C)CC3)c(F)cc3c(=O)c(C(=O)O)cn1c23 [Lev., Levofloxacin]
[1]; [5]
  interpretation of the result: R
[1]; [6]
  interpretation of the result: R
[1]; [7]
  interpretation of the result: I
[1]; [8]
  interpretation of the result: R
[1]; [9]
  interpretation of the result: R
[1]; [10]
  MIC: > 4 µg/mL
[1]; [11]
  MIC: > 4 µg/mL
[1]; [12]
  MIC: 4 µg/mL (≈ 11.1 µM)
[1]; [13]
  MIC: > 4 µg/mL
[1]; [14]
  MIC: > 4 µg/mL
[2]; Escherichia coli isolate 1
  interpretation of the result: R
[2]; Escherichia coli isolate 2
  interpretation of the result: R
[2]; Escherichia coli isolate 3
  interpretation of the result: R
[2]; Escherichia coli isolate 4
  interpretation of the result: R
[2]; Escherichia coli isolate 5
  interpretation of the result: R
[2]; [21]
  MIC: > 4 µg/mL
[2]; [22]
  MIC: > 4 µg/mL
[2]; [23]
  MIC: > 4 µg/mL
[2]; [24]
  MIC: > 4 µg/mL
[2]; [25]
  MIC: > 4 µg/mL
[3]; Klebsiella ssp. isolate 1
  interpretation of the result: R
[3]; Klebsiella ssp. isolate 2
  interpretation of the result: S
[3]; Klebsiella ssp. isolate 3
  interpretation of the result: S
[3]; Klebsiella ssp. isolate 4
  interpretation of the result: S
[3]; Klebsiella ssp. isolate 5
  interpretation of the result: S
[3]; [26]
  MIC: > 4 µg/mL
[3]; [27]
  MIC: ≤ 1 µg/mL
[3]; [28]
  MIC: ≤ 1 µg/mL
[3]; [29]
  MIC: ≤ 1 µg/mL
[3]; [30]
  MIC: ≤ 1 µg/mL
[4]; [16]
  interpretation of the result: R
[4]; [17]
  interpretation of the result: R
[4]; [18]
  interpretation of the result: R
[4]; [19]
  interpretation of the result: R
[4]; [20]
  interpretation of the result: R
[4]; [31]
  MIC: > 4 µg/mL
[4]; [32]
  MIC: > 4 µg/mL
[4]; [33]
  MIC: > 4 µg/mL
[4]; [34]
  MIC: > 4 µg/mL
[4]; [35]
  MIC: > 4 µg/mL
